Results taken from patent publication US20190192485A1, “DOSAGE REGIMEN FOR THE TREATMENT OF ENDOMETRIOSIS” (MEREO BIOPHARMA 2 LIMITED, priority 2016, published 2019).
≈ marks a conversion by molar mass, not a printed value.

What was measured:
[1] = system: estrone, estrone sulfate and estradiol; experiment: Single ascending dose study in women: PD (estrogen suppression); type: in vivo, human
Excerpt: (§1) A minimal toxic dose (MTD) was not reached. […] Table 3 presents the PK parameters based on analysis of the concentration-time profile obtained from this study.

[2] = Single 1.0 mg dose with combined oral contraceptive in premenopausal women (PK interaction, safety)
Protocol: The study consisted of a 49-day screening period and four consecutive 28-day (menstrual) cycles.
For the combined oral contraceptive, 30 μg of ethinyl estradiol and 0.15 mg of levonorgestrel (Seasonique®) was used. Seasonique® is an oral contraceptive designed and approved for daily administration. The 84 blue-green tablets (30-μg ethinyl estradiol and 0.15 mg levonorgestrel) are packaged with seven yellow tablets containing 10-μg ethinyl estradiol to eliminate the hormone free interval.

[3] = target: T1, aromatase (Homo sapiens, UniProt P11511); conditions: microsomal fraction of human placenta; cited from earlier work
T1 construct: high levels of aromatase in the adipose tissue; from tissue; host or cells: in vivo, human subjects (aromatase of adipose tissue)
T1 sequence (P11511 1-503): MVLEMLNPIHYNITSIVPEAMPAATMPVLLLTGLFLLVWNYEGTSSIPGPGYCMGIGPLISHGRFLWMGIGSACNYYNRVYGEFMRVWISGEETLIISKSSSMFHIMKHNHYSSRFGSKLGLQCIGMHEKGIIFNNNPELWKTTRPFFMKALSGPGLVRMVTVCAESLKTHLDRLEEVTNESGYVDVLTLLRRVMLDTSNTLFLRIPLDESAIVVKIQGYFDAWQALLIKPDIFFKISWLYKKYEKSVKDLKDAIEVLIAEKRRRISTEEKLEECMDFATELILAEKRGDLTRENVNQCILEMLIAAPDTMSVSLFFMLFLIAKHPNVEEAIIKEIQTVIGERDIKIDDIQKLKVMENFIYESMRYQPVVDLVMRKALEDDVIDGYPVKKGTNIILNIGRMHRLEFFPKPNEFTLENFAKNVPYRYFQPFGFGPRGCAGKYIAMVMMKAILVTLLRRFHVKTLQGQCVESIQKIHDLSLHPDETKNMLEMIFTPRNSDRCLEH

[4] = system: testosterone levels; experiment: Serum testosterone levels in male dogs after 1, 4 and 12 weeks of dosing; type: in vivo; conditions: all dose levels
Excerpt: (§2) Generally, the inter-animal variability in Cmax levels was small.

[5] = Toxicologic studies in dogs: plasma exposure after single and weekly oral dosing; type: in vivo
Excerpt: as §2

[6] = Tissue (fat) biopsy concentration versus plasma; type: in vivo; conditions: human fat biopsies, read-out: concentration in tissue (fat) relative to plasma/blood
[7] = Single ascending dose study in pre- and post-menopausal women: safety, tolerability and PK; type: in vivo, human; conditions: for AUC(0-tlast) Mean / Cmax Mean / T1/2 Mean / Tmax Median: po
Excerpt: The drug concentration in plasma and/or serum samples can be determined by a number of different ways, e.g. HPLC or LC-MS/MS analyses. […]
as §1

[8] = target: T1, aromatase; experiment: Low dose study in obese men with low testosterone, with PK/PD analyses of aromatase inhibition; type: in vivo
[9] = target: T2, aromatase (Rattus norvegicus, UniProt P22443); conditions: once weekly administration, adult female rats; cited from earlier work
T2 construct: achieving medical castration in adult female rats; from tissue; host or cells: in vivo, adult female rats
T2 sequence (P22443 1-508): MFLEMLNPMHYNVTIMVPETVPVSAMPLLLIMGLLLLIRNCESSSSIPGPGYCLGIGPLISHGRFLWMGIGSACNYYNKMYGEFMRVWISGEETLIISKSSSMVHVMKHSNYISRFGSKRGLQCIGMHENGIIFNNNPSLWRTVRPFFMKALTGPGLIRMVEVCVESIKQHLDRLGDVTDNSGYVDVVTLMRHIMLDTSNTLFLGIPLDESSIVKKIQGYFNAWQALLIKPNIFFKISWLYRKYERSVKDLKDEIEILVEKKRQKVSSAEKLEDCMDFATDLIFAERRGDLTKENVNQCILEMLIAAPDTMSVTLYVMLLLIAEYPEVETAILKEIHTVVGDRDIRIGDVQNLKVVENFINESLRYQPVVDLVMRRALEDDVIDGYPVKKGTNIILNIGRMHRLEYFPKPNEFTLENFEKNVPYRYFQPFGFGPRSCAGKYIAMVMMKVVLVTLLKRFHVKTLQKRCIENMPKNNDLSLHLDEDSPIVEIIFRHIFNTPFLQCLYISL

[10] = female, human, in vivo, 0.01 mg
[11] = female, human, in vivo, 0.03 mg

N#Cc1ccc(C(F)(c2ccc(C#N)cc2)n2cncn2)cc1 [CGP47645, 4,4′-[fluoro-(1-H-1,2,4-triazol-1-yl)methylene]bisbenzonitrile]
lowest single dose at which maximal estrogen suppression was observed ([1]; post-menopausal women, chemiluminescence or radioimmunoassay): 0.1 mg | lowest single dose at which transient estrogen suppression was seen ([1]; postmenopausal women): 0.01 mg | estrone suppression compared with letrozole ([1]; postmenopausal women, doses of 0.1 mg and 0.3 mg): at least equal to letrozole | inhibition of estrone, estrone sulfate and estradiol ([1]; women, single ascending doses): dose-dependent inhibition | safety of co-administration with continuously dosed COC ([2]; in vivo): may be co-administered safely | pharmacokinetic parameters with COC compared with single ascending dose study without COC ([2]; in vivo, po): similar | mode of aromatase inhibition [3]: competitive inhibitor | serum testosterone levels [4]: dramatically elevated testosterone levels | difference in exposure (AUC and Cmax) between male and female dogs ([5]; dogs): no consistent difference | drug accumulation ([5]; dogs, weekly oral dosing for 4 or 22 weeks versus single dose): no drug accumulation | increase in exposure (AUC and Cmax) with dose ([5]; male and female dogs, single and multiple doses, all dose levels): generally proportional to the dose increase | Kp [6]: ≤ 10 | inter-subject variability ([7]; female, human, in vivo): 10-30% | Tmax ([7]; female, human, in vivo, Tmax): 0.5 to 2 h | Tmax ([7]; female, human, in vivo, median Tmax): ≤ 1 h | AUC(0-tlast) Mean [7, 10]: 1.4 ng·h/mL | Cmax Mean [7, 10]: 0.2 ng/mL | T1/2 Mean [7, 10]: 55.2 h | Tmax Median [7, 10]: 1 h | AUC(0-tlast) Mean [7, 11]: 24.1 ng·h/mL | Cmax Mean [7, 11]: 0.4 ng/mL | T1/2 Mean [7, 11]: 396 h | AUC(0-tlast) Mean ([7]; female, human, in vivo, 0.1 mg): 116.2 ng·h/mL | Cmax Mean ([7]; female, human, in vivo, 0.1 mg): 1.7 ng/mL | T1/2 Mean ([7]; female, human, in vivo, 0.1 mg): 564 h | Tmax Median ([7]; female, human, in vivo, 0.1 mg): 1 h | Tmax Median ([7]; female, human, in vivo, 0.3 mg): 1 h | Tmax Median ([7]; female, human, in vivo, 1 mg): 1 h | Tmax Median ([7]; female, human, in vivo, 3 mg): 1 h | dose dependence of half-life ([7]; human, in vivo): directly dose dependent | dose proportionality of Cmax and AUC ([7]; human, in vivo): increased in a dose-proportional manner | difference in pharmacokinetics between post- and pre-menopausal women ([7]; in vivo): No differences | minimal toxic dose (MTD) ([7]; single doses 0.01 mg through 20 mg, post-menopausal women): not reached | average estimated IC40 for aromatase inhibition ([8]; PK/PD analyses, plasma concentration): 0.03 ng/mL | IC90 ([8]; PK/PD analyses, plasma concentration, read-out: average estimated IC90 for aromatase inhibition): 0.27 ng/mL (≈ 0.89 nM) | lowest dose with effects on the aromatase-testosterone-estradiol pathway ([8]; females and males with obesity-associated hypogonadotropic hypogonadism, blood levels below IC50): 0.003 mg | effective dose achieving medical castration [9]: 3 mg/kg

C#C[C@]1(O)CC[C@H]2[C@@H]3CCC4=CC(=O)CC[C@@H]4[C@H]3CC[C@@]21CC [levonorgestrel, reference compound]
steady state pharmacokinetic profile with 1 mg CGP47645 versus placebo ([2]; Day 29, surgically sterile healthy premenopausal women, COC 30 μg ethinyl estradiol and 0.15 mg levonorgestrel): similar
